Entries after “also recorded” stand apart in the source; their conditions may differ.
What was measured:
[1] = tested on: Cx43 in human neural stem cells (HNSC.100); assay: Western blot analysis for Cx43 in neural stem cells; format: cell-based; conditions: 0.5 mM 4-PB, up to 4 days
Description: Human neural stem cells (HNSC.100 cells, Villa et al Exp Neurol, 2000, 161(1):67-84) were obtained from Alberto Martinez Serrano, Department of Molecular Biology, Center of Molecular Biology Severo Ochoa, Autonomous University of Madrid-CSIC, Campus Cantoblanco, Madrid, 28049, Spain. Neural stem cells were grown to around 50% confluence and then 0.5 mM 4-PB treatment was started and continued for 4 days. Medium was replaced every 2nd day with fresh drug. Whole-cell lysates from three 100 mm petri dishes were solubilized in 100 μl of lysis buffer containing 250 mM Tris-HCl (pH 8.5), 2% SDS, 10% glycerol, 0.05 mM PMSF and protease inhibitor cocktail (Roche). Protein concentrations were quantified using the micro BSA protein assay kit (Pierce). Cell lysates were further mixed with loading buffer containing 1% β-mercaptoethanol, 0.02% bromophenol blue, and 0.1 M DTT. […] For quantification, films were scanned and analyzed with Image Gauge (Version 3.12, Fuji Photo Film Corp.). All results are expressed as means ± SE for the indicated number of experiments (FIG. 13). […] As the bands of protein became visible, the membranes were washed several times and total amount of loaded protein was quantified using computerized densitometric analysis.

[2] = tested on: gap junction communication between HNSC100 neural stem cells and glioblastoma cells; assay: Fluorescent dye transfer between neural stem cells and glioma cells; format: cell-based, human; conditions: pre-treatment 48 hours with 4-PB, 0.5 mM (stem cells) and 2 mM (glioblastoma cells)
Description: Donor human neural stem cells (1×10^5 HNSC100) and recipient human glioblastoma cells (1×10^5 U343MGa) cells were plated each in 4 separate 35 mm petri dishes. […] Donor cells were incubated with 10 μM Dil (a fluorescent lipophilic carbocyanine tracer; Molecular Probes) and 5 μM Calcein-AM (an acetoxymethyl ester derivative; Molecular Probes) for 20 min in complete medium. Cells were washed three times with culture medium and twice with PBS to remove free dye. After trypsinization, cells were pelleted by centrifugation and resuspended in co-culture medium. Donor cells 50% confluent were added to the plate of recipient cells. AGA treatment, when performed, was always continued throughout the experiment. Assessment of functional GJC by Calcein dye transfer from donor to recipient cells was carried out after 4 hours using an Olympus BX50WI microscope.

[3] = tested on: GFAP and connexin 43 in S6 cells; assay: Western blot of GFAP and connexin 43 in S6 glioma cells after 4-PB; format: cell-based, Rat; conditions: 2 mM 4-PB for 2 days
Description: Protein from S6 cells treated with 4-PB for 48 h was extracted and a Western blot analysis was performed. The intensity of the Cx43 specific signal was determined by imager and the activation of Cx43 was calculated. S6 cells not treated with 4-PB acted as reference.

[4] = tested on: U87MG cells; assay: XTT cytotoxicity assay of phenylbutyrate and of nucleoside analogues with or without phenylbutyrate pre-incubation; format: cell-based, human; conditions: 4-phenylbutyrate cytotoxicity assay, incubation 24 hours; read-out: IC50 U87MG (phenylbutyrate alone)
Description: Briefly, cells were harvested by trypsinzation, stained by Tryphan Blue for cell viability counting, seeded in triplicate in 96-well plates (1.000-2.000 cells/well) where after media conditioned with a fixed concentration of phenyl butyrate (3.16 mM) were added to the plates followed by incubation for 24 hours at 37° C. and 5% CO2. Cell proliferation/cytotoxicity was assessed by adding the colour generating substrates of the Cell Proliferation kit II (XTT) from Roche (Cat. No. 1465015) and measuring absorbance at 450 nm and 690 nm with a Thermo Labsystems Multiscan Ascent reader.
(§1) Cells were seeded at a density of 1.000-2.000 cells/well in 96-well plates. Cells were pre-incubated with 4-phenyl butyrate for 24 hours prior to drug exposure by adding media conditioned with phenyl butyrate at a fixed concentration (3.16 mM). Plated incubated for 24 hours (37° C., 5% CO2) where after media was discarded and replaced by media conditioned with various concentrations of nucleoside analogs (e.g. AZT), 200 μl/well. After 120 hours of drug exposure the experiments were terminated. Cell proliferation/cytotoxicity was assessed by adding the colour generating substrates of the Cell Proliferation kit II (XTT) from Roche (Cat. No. 1465015) and measuring absorbance at 450 nm and 690 nm with a Thermo Labsystems Multiscan Ascent reader.
The data was corrected for background media-only absorbance where after the 50% growth inhibitory concentration—IC50 (the dose that inhibits cell growth by 50%) was calculated for each treatment.
Briefly, cells were harvested by trypsinzation, stained by Tryphan Blue (Cambrex) for cell viability counting, seeded in triplicate in poly-L-lysine (PLL) (Sigma # P6282) coated 96-well plates (1.000-2.000 cells/well) where after media conditioned with a fixed concentration of phenyl butyrate (3.16 mM) was added to the plates followed by incubation for 24 hours at 37° C. and 5% CO2. Cell proliferation/cytotoxicity was assessed by adding the colour generating substrates of the
as §1, with “cells/well in PLL coated 96-well plates.” for “cells/well in 96-well plates.”, “of nucleoside analogs; AZT (Sigma # A2169), AraC (Sigma # C6645), Cladribine (CdA) (Sigma #C4438), Gancidovir (GCV) (Sigma # G2536) and Gemcitabine (Orifarm), 200 μl/well.” for “of nucleoside analogs (e.g. AZT), 200 μl/well.”, “Ascent reader. he data was corrected for background media-only absorbance where after the 50% growth inhibitory concentration—IC50 (the dose that inhibits cell growth by 50%) was calculated for ach treatment.” for “Ascent reader.”

**Q.** How did the “level of Cx43 protein (Western blot)” value [1] turn out when 4-phenylbutyrate [4-PB] was run?
**A.** increased; also recorded: upregulated

**Q.** And the “dye transfer from neural stem cells to glioblastoma cells” value [2]?
**A.** can induce such gap junction communication; also recorded: substantially enhanced

**Q.** And the “expression of GFAP” value [3]?
**A.** increased expression

**Q.** What about the “expression of connexin 43” value [3] of the same substance?
**A.** increased expression

**Q.** What about the IC50 [4] of the same substance?
**A.** 4.14 mM
